{"source": "patent US20120029083A1", "about": "“POLYMORPHIC FORMS OF ALISKIREN HEMIFUMARATE AND PROCESS FOR PREPARATION THEREOF” (Teva Pharmaceutical Industries, Ltd., priority 2007, published 2012)", "conditions": "pressed at 2 tons for 1 minute", "method": "ARL X-ray powder diffractometer model X′TRA-030, Peltier detector, round standard aluminum sample holder with round zero background quartz plate (or silicon plate in the case of Form XIV) was used. The cathode is CuKα radiation, λ=1.5418 Å. Scanning parameters: Range: 2-40°2θ, continuous Scan, Rate: 3 deg/min. The accuracy of peak positions is defined as +/−0.2° due to experimental differences like instrumentations, and sample preparations.\nThe formulation was mixed and pressed to a tablet. The applied pressure was 2 tons for 1 minute.\nThe formulation is mixed and pressed to a tablet. The applied pressure is 2 tons for 1 minute.", "note": "Where two headings read alike, the source gives them in different places.", "data": [{"smiles": "COCCCOc1cc(C[C@@H](C[C@H](N)[C@@H](O)C[C@H](C(=O)NCC(C)(C)C(N)=O)C(C)C)C(C)C)ccc1OC.COCCCOc1cc(C[C@@H](C[C@H](N)[C@@H](O)C[C@H](C(=O)NCC(C)(C)C(N)=O)C(C)C)C(C)C)ccc1OC.O=C(O)/C=C/C(=O)O", "note": "[amorphous aliskiren hemifumarate, (2S,4S,5S,7S)-N-(2-Carbamoyl-2-methylpropyl)-5-amino-4-hydroxy-2,7-diisopropyl-8-[4-methoxy-3-(3-methoxypropoxy)phenyl]-octanamide hemifumarate]", "values": [{"measurement": "conversion of amorphous form to a crystalline phase in pressed tablet (XRPD)", "setting": "formulation Example 67 (microcrystalline cellulose, PVP, crosspovidone, aerosil 200, Mg stearate)", "result": "No conversion of the amorphous Aliskiren to a crystalline phase"}, {"measurement": "conversion of amorphous form to a crystalline phase in pressed tablet (XRPD)", "setting": "formulation Example 68 (lactose monohydrate, PVP, crosspovidone, Mg stearate), written in present tense", "result": "No conversion of the amorphous Aliskiren to a crystalline phase"}]}]}
